Read-outs that look alike come from different tables or passages of the source. Peptide text beside a SMILES is read from it.
Legend:
HLA-C0602 = HLA-C0602 (Homo sapiens, UniProt P10321, A176E/A330V/C350S/L171W/L180W/L218V/M285V/M309V/M331V/N104K/P208H/Q277E/Q291P/R121W/S101N/S123Y/S297R/T329A/T363A/V319A/V328M); test: Competitive peptide binding assay, CIR-C0602
HLA-C0102 = HLA-C0102 (Homo sapiens, UniProt P10321, A176E/A330V/A35S/A97T/C350S/D114A/D33F/L171W/L180R/L218V/M285V/M309V/M331V/P208H/Q277E/Q291P/R121W/R243W/R30K/S123C/S140Y/S297R/T329A/T363A/V272M/V319A); test: Competitive peptide binding assay, CIR-C0102; details: for inhibition at 5 µM / inhibition at 15 µM: read-out: Inhibition % of Cy5-reference peptide binding
Description: (§1) Then, competitive peptide binding assays were performed.

HLA-C0702 = HLA-C0702 (Homo sapiens, UniProt P10321); test: Competitive peptide binding assay, CIR-C0702
HLA-C0401 = HLA-C0401 (Homo sapiens, UniProt P10321, A176E/A330V/A35S/A73E/C25G/C350S/D138N/D33S/E299K/L171W/L180R/L218V/M285V/M309V/M331V/N104K/P208H/Q277E/Q291P/R243W/R38W/S101N/S123F/S140F/S297R/S48A/T329A/T363A/V319A/V327M); test: Competitive peptide binding assay, CIR-C0401; details: HMy2.CIR-C0401 cells, reference Cy5-[…], class from inhibition at 5 and 15 μM, flow cytometry MFI; read-out: Binding affinity with HLA-C0401
Description: as §1

HLA-C0302 = HLA-C0302 (Homo sapiens, UniProt P10321, A176E/A330V/A97T/C25G/C350S/D114A/D33Y/E197K/L127V/L171W/L218V/M285V/M309V/M331V/P208H/Q277E/Q291P/R243W/R45H/S123Y/S297R/S48A/T118I/T187L/T329A/T363A/V319A); test: Competitive peptide binding assay, CIR-C0302; details: HMy2.CIR-C0302 cells, reference Cy5-[…], class from inhibition at 5 and 15 μM, flow cytometry MFI; read-out: Binding affinity with HLA-C0302
Description: as §1

HLA-C0801 = HLA-C0801 (Homo sapiens, UniProt P10321, A176T/A330V/A97T/C350S/D114A/D138N/D33Y/E201K/E299G/L171W/L218V/M285V/M309V/M331V/P208H/Q277E/Q291P/R59Q/S123Y/S140F/S297R/S48A/T329A/T363A/V319A/V328M); test: Competitive peptide binding assay, CIR-C0801; details: HMy2.CIR-C0801 cells, reference Cy5-[…], class from inhibition at 5 and 15 μM, flow cytometry MFI; read-out: Binding affinity with HLA-C0801
Description: as §1

HLA-C0304 = HLA-C0304 (Homo sapiens, UniProt P10321, A176E/A330V/A97T/C25G/C350S/D114A/D33Y/E197K/L119I/L127V/L171W/L218V/M285V/M309V/M331V/P208H/Q277E/Q291P/R243W/R45H/S123Y/S140Y/S297R/S48A/T118I/T187L/T329A/T363A/V319A); test: Competitive peptide binding assay, CIR-C0304; details: HMy2.CIR-C0304 cells, reference Cy5-[…], class from inhibition at 5 and 15 μM, flow cytometry MFI; read-out: Binding affinity with HLA-C0304
Description: as §1

[1] = HMy2.CIR-C0102 cells, reference Cy5-[…], class from inhibition at 5 and 15 μM, flow cytometry MFI, read-out: Binding affinity with HLA-C0102

Row | SMILES | IC50 (HLA-C0602) [µM] | IC50 (HLA-C0102; [1]) [µM] | inhibition at 5 µM (HLA-C0102) [%] | inhibition at 15 µM (HLA-C0102) [%] | IC50 (HLA-C0702) [µM] | IC50 (HLA-C0401) [µM] | IC50 (HLA-C0302) [µM] | IC50 (HLA-C0801) [µM] | IC50 (HLA-C0304) [µM] | IC50 (HLA-C0102) [µM]
1 | CC[C@H](C)[C@H](NC(=O)[C@H](C)NC(=O)[C@H](CC(C)C)NC(=O)[C@@H](NC(=O)[C@@H](N)C(C)C)[C@@H](C)O)C(=O)N[C@@H](CC(C)C)C(=O)N[C@H](C(=O)N[C@@H](C)C(=O)N[C@@H](CC(C)C)C(=O)O)[C@@H](C)O [Epitope M3, VTLAILTAL] (H-VTLAILTAL-OH; N-terminus and C-terminus assumed) | > 15 | < 5 | 69.2 | 87.4 | 5 to 15 | < 5 | – | – | – | –
2 | CC(C)[C@H](NC(=O)[C@H](CC(N)=O)NC(=O)[C@H](Cc1ccc(O)cc1)NC(=O)[C@H](C)NC(=O)[C@@H](N)CCCCN)C(=O)N[C@H](C(=O)N[C@@H](CCC(N)=O)C(=O)N[C@@H](C)C(=O)N[C@@H](Cc1ccccc1)C(=O)O)[C@@H](C)O [Epitope M11] (H-KAYNVTQAF-OH) | < 5 | 5 to 15 | – | – | 5 to 15 | > 15 | > 15 | – | – | –
3 | CC[C@H](C)[C@H](NC(=O)[C@H](C)NC(=O)CNC(=O)[C@@H](NC(=O)[C@H](Cc1ccc(O)cc1)NC(=O)[C@@H](NC(=O)[C@@H](N)CC(C)C)[C@@H](C)O)[C@@H](C)O)C(=O)N[C@@H](CCCCN)C(=O)N[C@@H](CC(C)C)C(=O)O [Epitope M15] (H-LTYTGAIKL-OH; N-terminus and C-terminus assumed) | < 5 | – | – | – | > 15 | – | > 15 | < 5 | – | –
4 | C[C@H](NC(=O)[C@H](CO)NC(=O)[C@H](C)NC(=O)[C@H](CO)NC(=O)[C@@H]1CCCN1C(=O)[C@H](C)NC(=O)[C@@H](N)Cc1ccccc1)C(=O)N[C@@H](Cc1ccccc1)C(=O)N[C@@H](Cc1ccccc1)C(=O)O [Epitope M16] (H-FAPSASAFF-OH; N-terminus and C-terminus assumed) | > 15 | 5 to 15 | 37 | 81.4 | > 15 | 5 to 15 | < 5 | – | – | –
5 | CC[C@H](C)[C@H](NC(=O)[C@H](CCCNC(=N)N)NC(=O)[C@H](CO)NC(=O)[C@H](CCSC)NC(=O)CNC(=O)[C@@H](N)Cc1ccccc1)C(=O)NCC(=O)N[C@@H](CCSC)C(=O)N[C@@H](CCC(=O)O)C(=O)N[C@H](C(=O)O)C(C)C [Epitope M19] (H-FGMSRIGMEV-OH; N-terminus and C-terminus assumed) | < 5 | > 15 | – | – | > 15 | – | – | > 15 | – | –
6 | CSCC[C@H](NC(=O)[C@H](CO)NC(=O)[C@H](Cc1ccccc1)NC(=O)[C@H](Cc1c[nH]cn1)NC(=O)[C@H](CCCCN)NC(=O)[C@H](CCCNC(=N)N)NC(=O)[C@H](CC(C)C)NC(=O)[C@H](Cc1ccc(O)cc1)NC(=O)[C@H](C)NC(=O)[C@@H](N)Cc1ccc(O)cc1)C(=O)O [Epitope M26] (H-YAYLRKHFSM-OH; N-terminus and C-terminus assumed) | > 15 | – | 8.9 | 33.9 | > 15 | – | 5 to 15 | – | 5 to 15 | > 15
7 | CC[C@H](C)[C@H](NC(=O)[C@H](CCCNC(=N)N)NC(=O)[C@H](CC(C)C)NC(=O)[C@H](CCSC)NC(=O)[C@H](CC(N)=O)NC(=O)[C@@H]1CCCN1C(=O)[C@H](CCSC)NC(=O)[C@H](C)NC(=O)[C@@H](N)CCCNC(=N)N)C(=O)O [Epitope M30] (H-RAMPNMLRI-OH; N-terminus and C-terminus assumed) | < 5 | 5 to 15 | – | – | > 15 | > 15 | – | > 15 | – | –
8 | CC(C)C[C@H](NC(=O)[C@H](C)NC(=O)[C@H](C)NC(=O)CNC(=O)[C@H](C)NC(=O)CNC(=O)[C@H](Cc1ccccc1)NC(=O)[C@@H](NC(=O)[C@@H](N)Cc1c[nH]c2ccccc12)[C@@H](C)O)C(=O)O [Epitope M33, WTFGAGAAL] (H-WTFGAGAAL-OH; N-terminus and C-terminus assumed) | – | – | – | – | – | – | 5 to 15 | – | > 15 | –
9 | CSCC[C@H](NC(=O)[C@H](CO)NC(=O)[C@H](CCCNC(=N)N)NC(=O)[C@@H](NC(=O)[C@H](CCCNC(=N)N)NC(=O)[C@H](C)NC(=O)[C@H](Cc1ccccc1)NC(=O)[C@H](CC(C)C)NC(=O)[C@@H](N)CCCNC(=N)N)[C@@H](C)O)C(=O)O [Epitope M41] (H-RLFARTRSM-OH; N-terminus and C-terminus assumed) | – | – | 9.56 | 35.7 | > 15 | – | – | 5 to 15 | – | > 15
10 | CC[C@H](C)[C@H](NC(=O)[C@@H](NC(=O)CNC(=O)[C@H](CC(N)=O)NC(=O)[C@H](CO)NC(=O)[C@H](CC(=O)O)NC(=O)[C@H](C)NC(=O)[C@@H](N)CCSC)[C@@H](C)O)C(=O)N[C@H](C(=O)N[C@H](C(=O)O)C(C)C)[C@@H](C)O [Epitope M48] (H-MADSNGTITV-OH; N-terminus and C-terminus assumed) | > 15 | > 15 | – | – | – | – | – | – | 5 to 15 | –
11 | CC(C)C[C@H](NC(=O)[C@H](C)NC(=O)[C@@H](NC(=O)[C@H](Cc1ccccc1)NC(=O)[C@H](Cc1c[nH]c2ccccc12)NC(=O)[C@H](CO)NC(=O)[C@H](C)NC(=O)[C@@H](NC(=O)[C@@H](N)CC(N)=O)[C@@H](C)O)[C@@H](C)O)C(=O)O [Epitope M56, NTASWFTAL] (H-NTASWFTAL-OH; N-terminus and C-terminus assumed) | > 15 | > 15 | 17.3 | 46.5 | – | – | – | 5 to 15 | – | –
12 | CC[C@H](C)[C@H](NC(=O)[C@H](CCC(N)=O)NC(=O)[C@H](CC(C)C)NC(=O)[C@H](C)NC(=O)[C@H](C)N)C(=O)N1CCC[C@H]1C(=O)N[C@@H](Cc1ccccc1)C(=O)N[C@@H](C)C(=O)N[C@@H](CCSC)C(=O)O [Epitope M66] (H-AALQIPFAM-OH; N-terminus and C-terminus assumed) | 5 to 15 | – | – | – | – | – | – | – | < 5 | –
13 | CC[C@H](C)[C@H](NC(=O)[C@H](Cc1ccc(O)cc1)NC(=O)[C@H](CC(C)C)NC(=O)[C@H](Cc1ccccc1)NC(=O)[C@H](CCCNC(=N)N)NC(=O)[C@H](CC(N)=O)NC(=O)[C@H](CCCNC(=N)N)NC(=O)[C@H](CC(N)=O)NC(=O)[C@H](C)NC(=O)[C@@H](N)Cc1ccc(O)cc1)C(=O)O [Epitope M73] (H-YANRNRFLYI-OH; N-terminus and C-terminus assumed) | < 5 | > 15 | 23.5 | 47.8 | – | – | 5 to 15 | – | – | –
14 | C[C@@H](O)[C@H](NC(=O)[C@H](CCC(N)=O)NC(=O)[C@H](CC(=O)O)NC(=O)[C@H](Cc1c[nH]c2ccccc12)NC(=O)[C@H](Cc1ccc(O)cc1)NC(=O)[C@H](CCCCN)NC(=O)[C@H](Cc1ccccc1)NC(=O)[C@@H](N)Cc1ccc(O)cc1)C(=O)N[C@@H](Cc1ccc(O)cc1)C(=O)O [Epitope M122] (H-YFKYWDQTY-OH; N-terminus and C-terminus assumed) | > 15 | > 15 | – | – | 5 to 15 | – | > 15 | – | > 15 | –
15 | CC(C)[C@H](NC(=O)CNC(=O)[C@H](CCCNC(=N)N)NC(=O)[C@@H](NC(=O)[C@H](Cc1ccccc1)NC(=O)[C@H](CO)NC(=O)[C@@H](N)CC(N)=O)[C@@H](C)O)C(=O)N[C@@H](Cc1ccc(O)cc1)C(=O)N[C@@H](Cc1ccc(O)cc1)C(=O)O [Epitope M129] (H-NSFTRGVYY-OH; N-terminus and C-terminus assumed) | – | > 15 | 11.3 | 34.3 | – | – | > 15 | – | – | –
